According to article PMC11191600 (ACS chemical neuroscience, 2024):

Columns and labels:
[1] = biological target: T1, human dopamine D4.4 receptor (Homo sapiens, UniProt P21917); assay: Human dopamine D4.4 receptor radioligand binding assay (Eurofins); settings: Eurofins Discovery
T1 sequence (P21917 1-419): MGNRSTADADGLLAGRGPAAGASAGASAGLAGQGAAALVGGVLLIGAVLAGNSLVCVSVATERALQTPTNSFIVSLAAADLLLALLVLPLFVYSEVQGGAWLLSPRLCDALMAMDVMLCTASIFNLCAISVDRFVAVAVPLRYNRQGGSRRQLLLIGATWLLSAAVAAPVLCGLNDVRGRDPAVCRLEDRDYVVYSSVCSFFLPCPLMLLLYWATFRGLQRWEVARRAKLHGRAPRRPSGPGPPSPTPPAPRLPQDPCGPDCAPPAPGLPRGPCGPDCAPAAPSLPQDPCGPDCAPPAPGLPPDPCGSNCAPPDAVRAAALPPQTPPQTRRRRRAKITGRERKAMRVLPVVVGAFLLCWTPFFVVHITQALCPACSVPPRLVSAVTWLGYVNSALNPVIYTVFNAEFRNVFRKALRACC

[2] = biological target: human dopamine D2S receptor (Homo sapiens, UniProt P14416); assay: Human dopamine D2S receptor radioligand binding assay (Eurofins); settings: 10 μM; [3H]Spiperone binding; Eurofins Discovery
[3] = biological target: Human recombinant dopamine D2L receptor (Homo sapiens, UniProt P14416); assay: Human dopamine D2L receptor radioligand binding assay (Eurofins); settings: 10 μM; [3H]Spiperone binding; Eurofins Discovery
[4] = biological target: human dopamine D3 receptor (Homo sapiens, UniProt P35462); assay: Human dopamine D3 receptor radioligand binding assay (Eurofins); settings: 10 μM; [3H]Spiperone binding; Eurofins Discovery
[5] = biological target: human dopamine D1 receptor (Homo sapiens, UniProt P21728); assay: Human dopamine D1 receptor radioligand binding assay (Eurofins); settings: 10 μM; [3H]SCH-23390 binding; Eurofins Discovery
[6] = Plasma protein binding, equilibrium dialysis, human plasma; assay type: in vitro ADME
[7] = Plasma protein binding, equilibrium dialysis, rat plasma; assay type: in vitro ADME
[8] = Microsomal stability, human hepatic microsomes; assay type: in vitro ADME; settings: predicted hepatic clearance
[9] = Microsomal stability, rat hepatic microsomes; assay type: in vitro ADME; settings: predicted hepatic clearance
[10] = In vivo pharmacokinetics, intravenous cassette dosing in rats; parameters: species or system male Sprague-Dawley rats; settings: rat
[11] = Metabolite profiling in human hepatocytes; assay type: in vitro ADME; settings: 4 h
[12] = Metabolite profiling in rat hepatocytes; assay type: in vitro ADME; settings: 4 h
[13] = Kinetic solubility (shake flask, McIlvaine buffer); assay type: physicochemical; settings: kinetic, 100 µM, 18 hours room temperature
[14] = intravenous 0.2 mg/kg, cassette

Human recombinant dopamine D2L receptor, sequence (P14416 whole entry): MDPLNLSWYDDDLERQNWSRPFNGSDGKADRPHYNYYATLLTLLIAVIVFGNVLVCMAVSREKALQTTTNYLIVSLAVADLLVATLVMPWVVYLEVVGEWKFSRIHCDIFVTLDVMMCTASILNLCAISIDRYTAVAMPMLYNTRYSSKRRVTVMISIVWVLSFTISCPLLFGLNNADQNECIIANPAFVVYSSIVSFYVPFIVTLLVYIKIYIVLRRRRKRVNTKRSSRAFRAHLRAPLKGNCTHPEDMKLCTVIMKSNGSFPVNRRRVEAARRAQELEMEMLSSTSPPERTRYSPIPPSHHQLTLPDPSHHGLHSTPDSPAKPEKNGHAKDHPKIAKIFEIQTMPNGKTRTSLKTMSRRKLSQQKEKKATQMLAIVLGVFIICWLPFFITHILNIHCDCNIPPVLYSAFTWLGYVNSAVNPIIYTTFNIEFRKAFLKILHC
human dopamine D3 receptor, sequence (P35462 whole entry): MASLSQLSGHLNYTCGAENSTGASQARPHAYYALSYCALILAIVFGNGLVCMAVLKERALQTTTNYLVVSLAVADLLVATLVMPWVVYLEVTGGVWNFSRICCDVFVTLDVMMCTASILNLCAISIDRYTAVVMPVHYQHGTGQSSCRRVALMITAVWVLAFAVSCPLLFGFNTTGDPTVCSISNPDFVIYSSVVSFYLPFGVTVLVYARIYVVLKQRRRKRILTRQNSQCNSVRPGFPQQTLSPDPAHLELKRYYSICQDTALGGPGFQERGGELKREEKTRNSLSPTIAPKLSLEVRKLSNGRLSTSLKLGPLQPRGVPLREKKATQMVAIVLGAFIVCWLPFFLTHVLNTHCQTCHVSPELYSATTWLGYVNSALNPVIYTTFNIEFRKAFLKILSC
human dopamine D1 receptor, sequence (P21728 whole entry): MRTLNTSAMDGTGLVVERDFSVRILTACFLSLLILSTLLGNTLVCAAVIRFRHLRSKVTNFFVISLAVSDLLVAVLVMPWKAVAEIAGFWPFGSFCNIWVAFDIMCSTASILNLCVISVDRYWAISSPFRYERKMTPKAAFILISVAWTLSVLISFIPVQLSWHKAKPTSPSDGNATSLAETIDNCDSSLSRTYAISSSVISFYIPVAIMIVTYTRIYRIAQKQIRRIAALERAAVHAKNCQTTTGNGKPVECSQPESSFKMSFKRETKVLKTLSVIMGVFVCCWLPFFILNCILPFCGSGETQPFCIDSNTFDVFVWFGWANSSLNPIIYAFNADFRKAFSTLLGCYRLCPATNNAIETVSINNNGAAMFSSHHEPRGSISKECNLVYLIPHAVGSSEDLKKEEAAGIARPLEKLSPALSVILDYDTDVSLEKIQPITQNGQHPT
human dopamine D2S receptor, sequence (P14416 1-414 isoform P14416-2): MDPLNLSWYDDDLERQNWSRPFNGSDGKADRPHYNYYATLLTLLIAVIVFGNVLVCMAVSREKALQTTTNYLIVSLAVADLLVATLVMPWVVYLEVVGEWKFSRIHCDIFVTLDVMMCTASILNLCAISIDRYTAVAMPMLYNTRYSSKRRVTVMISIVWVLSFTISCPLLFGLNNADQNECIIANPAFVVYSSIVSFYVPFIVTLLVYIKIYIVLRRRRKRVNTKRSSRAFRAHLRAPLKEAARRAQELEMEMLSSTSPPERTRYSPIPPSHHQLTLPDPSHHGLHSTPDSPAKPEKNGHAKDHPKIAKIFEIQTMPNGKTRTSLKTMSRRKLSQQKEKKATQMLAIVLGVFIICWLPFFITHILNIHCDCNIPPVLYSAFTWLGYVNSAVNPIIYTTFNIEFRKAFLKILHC

## Cc1ccccc1C(=O)N1CC2(CCN(Cc3c[nH]c4cc(F)ccc34)CC2)C1 [Compound 33]
[1]; 10 μM, [3H]Spiperone binding
  % Inhibition at 10 μM D4.4: 93%
[1]; read-out: D4.4 IC50
  IC50: 210 nM
[1]; read-out: D4.4 Ki
  Ki: 59 nM
[2]
  % Inhibition at 10 μM D2S: 0%
[3]
  % Inhibition at 10 μM D2L: −7%
[4]
  % Inhibition at 10 μM D3: 11%
[5]
  % Inhibition at 10 μM D1: 9%
[6]
  fu,plasma human (fraction unbound): 0.19
[7]
  fu,plasma rat (fraction unbound): 0.26
[8]
  CLH human (hepatic clearance): 16.0 mL/min/kg
[9]
  CLH rat (hepatic clearance): 39.0 mL/min/kg
[10]; [14]
  AUC (area under the curve): 27.0 ng·h/mL
  CLp (plasma clearance): 123 mL/min/kg
  Vss (volume of distribution at steady-state): 36.9 L/kg
  t1/2 (terminal phase plasma half-life): 4.02 h
[10]; intravenous dosing
  in vivo clearance relative to hepatic blood flow (superhepatic clearance): > 100 % Qh
[11]
  piperidine N-dealkylation metabolite, relative percentage: 6.3%
  turnover in hepatocytes: low turnover
[11]; LC/MS relative percentage
  parent compound remaining postincubation: 87.9%
[12]
  piperidine N-dealkylation metabolite, relative percentage: 32.4%
  turnover in hepatocytes: moderate turnover
[12]; LC/MS relative percentage
  parent compound remaining postincubation: 65.8%
[13]; McIlvaine buffer pH 2.2
  Solubility pH = 2.2: 92.9 µM
[13]; McIlvaine buffer pH 6.8
  Solubility pH = 6.8: 87.7 µM
